Experimental data published in patent US12649727B2, “EFGR inhibitor, preparation method therefor and application thereof” (Abbisko Therapeutics Co., Ltd, priority 2020, dated 2026).

Assays:
Type in all cases: cell-based
[1] = target: Ba/F3 EGFR-D770-N771ins_SVD (Homo sapiens, UniProt P00533, DUP768-770, cells depend on it); test: Proliferation experiment of Ba/F3 cell line, EGFR-D770-N771ins_SVD (CellTiter-Glo); details: cultured for 72 hrs with compound, CTG analysis, read-out: Ba/F3 EGFR-D770-N771ins_SVD IC50
In short: (§1)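 […] Ba/F3 cells expressing EGFR insertion mutants treated 72 h at 37 °C with 9 concentrations, 3.16-fold dilutions, top 10 μM, 0.1% DMSO, in triplicate. Viability by CellTiter-Glo luminescence with T0 reference plate; IC50 (nM) from non-linear dose-response fit.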

[2] = target: Ba/F3 EGFR-V769_D770insASV (Homo sapiens, UniProt P00533, DUP767-769, cells depend on it); test: Proliferation experiment of Ba/F3 cell line, EGFR-V769_D770insASV (CellTiter-Glo); details: cultured for 72 hrs with compound, CTG analysis, read-out: Ba/F3 EGFR-V769_D770insASV IC50
In short: as §1

[3] = tested on: A431 (EGFR-WT); test: Proliferation experiment, A431 cell line (CellTiter-Glo); details: Homo sapiens, A-431; A431 cells, cultured for 72 hrs with compound, CTG analysis

Chain of Ba/F3 EGFR-V769_D770insASV (P00533 with tags, fused parts or gaps DUP767-769): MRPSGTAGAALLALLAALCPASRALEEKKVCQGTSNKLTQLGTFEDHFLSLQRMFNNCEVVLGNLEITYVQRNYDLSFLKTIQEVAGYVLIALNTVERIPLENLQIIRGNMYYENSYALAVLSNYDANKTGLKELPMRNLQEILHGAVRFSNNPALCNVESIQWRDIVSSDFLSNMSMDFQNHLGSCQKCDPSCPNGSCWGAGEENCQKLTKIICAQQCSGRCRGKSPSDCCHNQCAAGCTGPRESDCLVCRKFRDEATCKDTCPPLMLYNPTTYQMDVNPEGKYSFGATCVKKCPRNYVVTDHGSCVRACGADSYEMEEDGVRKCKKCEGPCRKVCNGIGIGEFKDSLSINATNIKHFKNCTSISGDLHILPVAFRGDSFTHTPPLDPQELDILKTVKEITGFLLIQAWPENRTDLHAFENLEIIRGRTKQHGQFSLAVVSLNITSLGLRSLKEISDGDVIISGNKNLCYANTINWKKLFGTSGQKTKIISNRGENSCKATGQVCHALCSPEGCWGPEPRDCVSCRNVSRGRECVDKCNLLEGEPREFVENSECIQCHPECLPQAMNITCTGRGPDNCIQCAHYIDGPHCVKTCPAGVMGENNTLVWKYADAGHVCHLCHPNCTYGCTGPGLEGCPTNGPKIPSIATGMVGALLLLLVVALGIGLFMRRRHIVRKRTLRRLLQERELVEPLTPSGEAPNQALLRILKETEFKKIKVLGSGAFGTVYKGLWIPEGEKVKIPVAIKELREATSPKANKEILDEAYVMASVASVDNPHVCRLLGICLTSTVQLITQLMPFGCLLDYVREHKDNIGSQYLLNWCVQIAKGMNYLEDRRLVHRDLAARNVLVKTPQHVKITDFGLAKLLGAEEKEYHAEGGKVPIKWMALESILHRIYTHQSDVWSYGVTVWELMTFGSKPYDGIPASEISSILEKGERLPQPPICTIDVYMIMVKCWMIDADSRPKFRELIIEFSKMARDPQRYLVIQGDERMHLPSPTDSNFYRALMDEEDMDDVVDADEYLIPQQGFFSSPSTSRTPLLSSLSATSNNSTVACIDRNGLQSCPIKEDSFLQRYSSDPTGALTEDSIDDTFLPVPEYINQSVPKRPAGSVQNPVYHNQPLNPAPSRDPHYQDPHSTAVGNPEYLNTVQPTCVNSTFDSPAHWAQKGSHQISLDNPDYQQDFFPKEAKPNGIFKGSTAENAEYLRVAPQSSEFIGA
Chain of Ba/F3 EGFR-D770-N771ins_SVD (P00533 with tags, fused parts or gaps DUP768-770): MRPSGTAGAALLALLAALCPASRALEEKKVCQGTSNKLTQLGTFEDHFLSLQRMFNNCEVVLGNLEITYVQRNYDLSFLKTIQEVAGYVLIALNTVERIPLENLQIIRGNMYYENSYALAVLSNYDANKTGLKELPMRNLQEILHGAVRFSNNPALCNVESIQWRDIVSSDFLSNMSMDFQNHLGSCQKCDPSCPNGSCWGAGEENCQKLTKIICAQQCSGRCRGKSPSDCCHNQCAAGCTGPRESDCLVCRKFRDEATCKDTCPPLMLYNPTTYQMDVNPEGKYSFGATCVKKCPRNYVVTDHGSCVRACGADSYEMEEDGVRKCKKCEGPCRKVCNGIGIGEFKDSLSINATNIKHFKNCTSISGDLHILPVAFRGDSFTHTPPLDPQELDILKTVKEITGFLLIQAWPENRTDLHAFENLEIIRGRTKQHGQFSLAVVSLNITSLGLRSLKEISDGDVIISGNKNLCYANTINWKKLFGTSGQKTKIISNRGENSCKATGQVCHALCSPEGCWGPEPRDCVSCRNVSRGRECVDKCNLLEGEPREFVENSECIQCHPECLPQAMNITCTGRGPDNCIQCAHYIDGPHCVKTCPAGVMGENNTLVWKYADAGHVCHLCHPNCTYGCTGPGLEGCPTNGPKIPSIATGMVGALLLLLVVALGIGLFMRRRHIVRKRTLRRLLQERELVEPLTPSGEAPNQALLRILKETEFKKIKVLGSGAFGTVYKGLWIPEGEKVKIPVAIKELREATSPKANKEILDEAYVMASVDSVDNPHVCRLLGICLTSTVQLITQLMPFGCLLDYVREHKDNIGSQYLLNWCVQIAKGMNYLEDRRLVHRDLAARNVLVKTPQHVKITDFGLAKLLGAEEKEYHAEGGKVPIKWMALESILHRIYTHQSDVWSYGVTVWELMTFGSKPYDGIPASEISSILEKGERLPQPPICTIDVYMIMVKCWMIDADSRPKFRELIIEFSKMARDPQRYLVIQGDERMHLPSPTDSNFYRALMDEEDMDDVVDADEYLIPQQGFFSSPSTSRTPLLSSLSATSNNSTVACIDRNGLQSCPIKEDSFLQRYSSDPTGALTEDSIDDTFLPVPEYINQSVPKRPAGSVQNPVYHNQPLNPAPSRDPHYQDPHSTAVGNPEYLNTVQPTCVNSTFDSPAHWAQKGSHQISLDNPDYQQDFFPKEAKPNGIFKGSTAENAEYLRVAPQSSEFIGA

SMILES	GI50 [1] [nM]	GI50 [2] [nM]	IC50 [3] [nM]
C=CC(=O)Nc1cc2c(Nc3ccc(F)c(-c4ccccc4)c3)ncnc2cc1OCCCN1CCN(C)CC1 [Example 48, N-(4-((6-fluoro-[1,1′-biphenyl]-3-yl)amino)-7-(3-(4-methylpiperazin-1-yl)propoxy)quinazolin-6-yl)acrylamide]	14.5	41.4	26
C=CC(=O)Nc1cc2c(Nc3ccc(F)c(-c4ccccn4)c3)ncnc2cc1OCCCN1CCOCC1 [Example 49, N-(4-((4-fluoro-3-(pyridin-2-yl)phenyl)amino)-7-(3-morpholinopropoxy)quinazolin-6-yl)acrylamide]	28.6	59.1	377
C=CC(=O)Nc1cc2c(Nc3ccc(F)c(-c4ccccn4)c3)ncnc2cc1OCCCN1CCN(C)CC1 [Example 50, N-(4-((4-fluoro-3-(pyridin-2-yl)phenyl)amino)-7-(3-(4-methylpiperazin-1-yl)propoxy)quinazolin-6-yl)acrylamide]	23.3	37.9	48
C=CC(=O)Nc1cc2c(Nc3cccc(-n4cccn4)c3)ncnc2cc1OCCCN1CCN(C)CC1 [Example 53, N-(4-((3-(1H-pyrazol-1-yl)phenyl)amino)-7-(3-(4-methylpiperazin-1-yl)propoxy)quinazolin-6-yl)acrylamide]	11.4	22.3	341
C=CC(=O)Nc1cc2c(Nc3cccc(-n4nccn4)c3)ncnc2cc1OCCCN1CCN(C)CC1 [Example 56, N-(4-((3-(2H-1,2,3-triazol-2-yl)phenyl)amino)-7-(3-(4-methylpiperazin-1-yl)propoxy)quinazolin-6-yl)acrylamide]	11.4	22.6	357
C=CC(=O)Nc1cc2c(Nc3cncc(-c4ccccc4F)c3)ncnc2cc1OCCN1CCOCC1 [Example 57, N-(4-((5-(2-fluorophenyl)pyridin-3-yl)amino)-7-(2-morpholinoethoxy)quinazolin-6-yl)acrylamide]	10.8	28.7	1070
C=CC(=O)Nc1cc2c(Nc3cncc(-c4ccccc4F)c3)ncnc2cc1OCCCN1CCOCC1 [Example 58, N-(4-((5-(2-fluorophenyl)pyridin-3-yl)amino)-7-(3-morpholinopropoxy)quinazolin-6-yl)acrylamide]	5.1	13.6	840
C=CC(=O)Nc1cc2c(Nc3cncc(-c4ccccc4F)c3)ncnc2cc1OCCCN1CCN(C)CC1 [Example 59, N-(4-((5-(2-fluorophenyl)pyridin-3-yl)amino)-7-(3-(4-methylpiperazin-1-yl)propoxy)quinazolin-6-yl)acrylamide]	4.2	11.2	226
C=CC(=O)Nc1cc2c(Nc3cncc(-c4c(F)cccc4F)c3)ncnc2cc1OCCCN1CCN(C)CC1 [Example 62, N-(4-((5-(2,6-difluorophenyl)pyridin-3-yl)amino)-7-(3-(4-methylpiperazin-1-yl)propoxy)quinazolin-6-yl)acrylamide]	11	23.6	348
C=CC(=O)Nc1cc2c(Nc3cncc(-c4ccccc4F)c3)ncnc2cc1O[C@@H]1CCN(C)C1 [Example 63, (R)-N-(4-((5-(2-fluorophenyl)pyridin-3-yl)amino)-7-((1-methylpyrrolidin-3-yl)oxy)quinazolin-6-yl)acrylamide]	14.1	38.1	972
C=CC(=O)Nc1cc2c(Nc3cncc(-c4c(F)cccc4F)c3)ncnc2cc1O[C@@H]1CCN(C)C1 [Example 64, (R)-N-(4-((5-(2,6-difluorophenyl)pyridin-3-yl)amino)-7-((1-methylpyrrolidin-3-yl)oxy)quinazolin-6-yl)acrylamide]	34.5	63.6	1000
C=CC(=O)Nc1cc2c(Nc3ccnc(-c4ccccc4F)c3)ncnc2cc1O[C@@H]1CCN(C)C1 [Example 65, (R)—N-(4-((2-(2-fluorophenyl)pyridin-4-yl)amino)-7-((1-methylpyrrolidin-3-yl)oxy)quinazolin-6-yl)acrylamide]	4.1	7.9	289
C=C(F)C(=O)Nc1cc2c(Nc3ccnc(-c4ccccc4F)c3)ncnc2cc1O[C@@H]1CCN(C)C1 [Example 66, (R)-2-fluoro-N-(4-((2-(2-fluorophenyl)pyridin-4-yl)amino)-7-((1-methylpyrrolidin-3-yl)oxy)quinazolin-6-yl)acrylamide]	5.9	6.5	10.2
CN(C)C/C=C/C(=O)Nc1cc2c(Nc3ccnc(-c4ccccc4F)c3)ncnc2cc1O[C@@H]1CCN(C)C1 [Example 67, (R,E)-4-(dimethylamino)-N-(4-((2-(2-fluorophenyl)pyridin-4-yl)amino)-7-((1-methylpyrrolidin-3-yl)oxy)quinazolin-6-yl)but-2-enamide]	9.5	11.5	21.1
C=CC(=O)Nc1cc2c(Nc3ccnc(-c4ccccc4F)c3)ncnc2cc1OCCN1CCOCC1 [Example 68, N-(4-((2-(2-fluorophenyl)pyridin-4-yl)amino)-7-(2-morpholinoethoxy)quinazolin-6-yl)acrylamide]	1.3	2.5	19.3
C=CC(=O)Nc1cc2c(Nc3ccnc(-c4ccccc4F)c3)ncnc2cc1OCCCN1CCOCC1 [Example 69, N-(4-((2-(2-fluorophenyl)pyridin-4-yl)amino)-7-(3-morpholinopropoxy)quinazolin-6-yl)acrylamide]	3.4	5	38.1
C=CC(=O)Nc1cc2c(Nc3ccnc(-c4ccccc4F)c3)ncnc2cc1OCCCN1CCN(C)CC1 [Example 70, N-(4-((2-(2-fluorophenyl)pyridin-4-yl)amino)-7-(3-(4-methylpiperazin-1-yl)propoxy)quinazolin-6-yl)acrylamide]	3.1	5	81
C=CC(=O)Nc1cc2c(Nc3ccnc(-c4ccccc4F)c3)ncnc2cc1OCCCN1CCN(CC)CC1 [Example 71, N-(7-(3-(4-ethylpiperazin-1-yl)propoxy)-4-((2-(2-fluorophenyl)pyridin-4-yl)amino)quinazolin-6-yl)acrylamide]	1.9	3.1	9.3
C=CC(=O)Nc1cc2c(Nc3ccnc(-c4c(F)cccc4F)c3)ncnc2cc1OCCCN1CCN(C)CC1 [Example 74, N-(4-((2-(2,6-difluorophenyl)pyridin-4-yl)amino)-7-(3-(4-methylpiperazin-1-yl)propoxy)quinazolin-6-yl)acrylamide]	3.5	4.4	136
C=CC(=O)Nc1cc2c(Nc3ccnc(-c4c(F)cccc4F)c3)ncnc2cc1O[C@@H]1CCN(C)C1 [Example 76, (R)-N-(4-((2-(2,6-difluorophenyl)pyridin-4-yl)amino)-7-((1-methylpyrrolidin-3-yl)oxy)quinazolin-6-yl)acrylamide]	2.9	6.4	73.2
C=CC(=O)Nc1cc2c(Nc3ccnc(-c4ccc(F)cc4F)c3)ncnc2cc1OCCN1CCOCC1 [Example 77, N-(4-((2-(2,4-difluorophenyl)pyridin-4-yl)amino)-7-(2-morpholinoethoxy)quinazolin-6-yl)acrylamide]	1.6	4.4	317
C=CC(=O)Nc1cc2c(Nc3ccnc(-c4ccc(F)cc4F)c3)ncnc2cc1OCCCN1CCOCC1 [Example 78, N-(4-((2-(2,4-difluorophenyl)pyridin-4-yl)amino)-7-(3-morpholinopropoxy)quinazolin-6-yl)acrylamide]	3.2	3.8	41
C=CC(=O)Nc1cc2c(Nc3ccnc(-c4ccc(F)cc4F)c3)ncnc2cc1OCCCN1CCN(C)CC1 [Example 79, N-(4-((2-(2,4-difluorophenyl)pyridin-4-yl)amino)-7-(3-(4-methylpiperazin-1-yl)propoxy)quinazolin-6-yl)acrylamide]	4.2	6.8	32.1
C=CC(=O)Nc1cc2c(Nc3ccnc(-c4ccc(F)cc4F)c3)ncnc2cc1O[C@@H]1CCN(C)C1 [Example 81, (R)-N-(4-((2-(2,4-difluorophenyl)pyridin-4-yl)amino)-7-((1-methylpyrrolidin-3-yl)oxy)quinazolin-6-yl)acrylamide]	3.1	5.2	122
C=CC(=O)Nc1cc2c(Nc3ccnc(-c4ccccc4F)c3)ncnc2cc1OC [Example 82, N-(4-((2-(2-fluorophenyl)pyridin-4-yl)amino)-7-methoxyquinazolin-6-yl)acrylamide]	1.7	2.6	624
C=CC(=O)Nc1cc2c(Nc3ccnc(-c4ccccc4F)c3)ncnc2cc1OCC [Example 83, N-(4-((2-(2-fluorophenyl)pyridin-4-yl)amino)-7-ethoxyquinazolin-6-yl)acrylamide]	3.3	7.5	820
C=C(F)C(=O)Nc1cc2c(Nc3ccnc(-c4ccccc4F)c3)ncnc2cc1OC [Example 86, 2-fluoro-N-(4-((2-(2-fluorophenyl)pyridin-4-yl)amino)-7-methoxyquinazolin-6-yl)acrylamide]	3.3	5.1	316
C=C(F)C(=O)Nc1cc2c(Nc3ccnc(-c4ccccc4F)c3)ncnc2cc1OCC [Example 87, 2-fluoro-N-(4-((2-(2-fluorophenyl)pyridin-4-yl)amino)-7-ethoxyquinazolin-6-yl)acrylamide]	4.1	10.7	487
